Assay results published in patent US6028061A, “Angiogenesis inhibitors and use thereof” (Children's Medical Center Corp, priority 1998, dated 2000).
“Also recorded” adds a separate entry of the source.

Columns and labels:
FGF-2 [1] = assay: Isothermal titration calorimetry of glycosaminoglycan binding to FGF-2; details: for Kd / n, average number of FGF-2 molecules occupying a single glycosaminoglycan chain (stoichiometry): 50 mM sodium phosphate pH 7.4, 100 mM NaCl, 25° C; for FGF-2 binding (in words): isothermal titration calorimetry
Protocol: Interaction of glycosaminoglycans and their derivatives with FGF-2. Isothermal titration calorimetry was performed in 50 mM sodium phosphate buffer, pH 7.4, containing 100 mM sodium chloride at 25° C. as previously described (15).
Determination of the FGF-2 binding affinity of glycosaminoglycans and their derivatives. Isothermal titration calorimetry was performed with heparin oligosaccharides, herapin, acharan sulfate and N-sulfoacharan sulfate. The heat of interaction (ΔH) is directly measured in this experiment. From this heat of interaction the Kd, and n (stoichiometry) of interaction can be deduced. The minimum FGF-2 binding site is a tetra- or hexasaccharide. […] The n value is consistent with the molecular weight of each ligand (Table 2).

[2] = test system: FGF-2 mitogenic activity in F32 cells; assay: FGF-2 mitogenicity assay in F32 cells, absence of added heparin ([3H]-thymidine incorporation; stimulation of FGF-2 activity); assay type: cell-based; details: for [3H]-thymidine incorporation, controls alone: F32 cells, heparin (alone) and FGF-2 (alone) controls
Protocol: (§1) Assay of FGF-2 mitogenic activity, FGF-2 mitogenicity assays were performed in F32 cells that express FGF-receptor 1 (FGF-R1)(16) but no detectable levels of heparan sulfate proteoglycans (17). […] Tested glycosaminoglycans were added in concentrations ranging from 1-5000 ng/ml. Proliferation was measured after 40 h incubation in 200 μl medium (RPM1 1640, 10% heat-inactivated newborn calf serum) in the presence of a 1 μCi/well pulse of [^3 H]-thymidine during the final 6 h of the incubation. Radioactivity incorporated into DNA was quantified by scintillation counting, MTT, 3-[4,5-dimethylthiazol-2-yl]-2,5-diphenyl tetrazolium bromide (Thiazole blue), used to determine cell viability, was from Sigma Chemical (St. Louis, Mo.).
(§2) Influence of glycosaminoglycans and their derivatives on FGF-2 mitogenic activity. The direct influence of acharan sulfate and its derivative on FGF-2 mitogenic activity was measured in the absence of added heparin. […] The effect of acharan sulfate on cell viability was assessed by measuring the formation of a chromogen from MTT, a tetrazolium dye that is converted solely by living cells (18). […] Thus, the inhibition of mitogenicity is not due to toxicity leading to reduced cell number.

[3] = test system: FGF-2 mitogenic activity in F32 cells; assay: FGF-2 mitogenicity assay in F32 cells, presence of 10 ng/ml heparin ([3H]-thymidine incorporation; inhibition of heparin-mediated activity); assay type: cell-based; details: for FGF-2 mitogenicity in the presence of heparin (in words): 10 ng/ml heparin, 150 pM FGF-2, 40 h
Protocol: as §1, §2

F32 cells = assay: MTT cell viability assay; assay type: cell-based; details: 40 h incubation, same concentrations as in the mitogenicity assays
Protocol: as §1, §2

FGF-2 [4] = details: cited from earlier work

| Substance | Kd (FGF-2 [1]) | n, average number of FGF-2 molecules occupying a single glycosaminoglycan chain (stoichiometry) (FGF-2 [1]) | FGF-2 binding (in words) (FGF-2 [1]) | FGF-2 mitogenicity in the presence of heparin (in words) [3] | [3H]-thymidine incorporation, controls alone [2] | further results |
| --- | --- | --- | --- | --- | --- | --- |
| →4)GlcNp2S(1→4)IdoAp2S(1→ [N-sulfoacharan sulfate] | 90 nM | 4.4 | bind FGF-2 most tightly; also recorded: tightly bound multiple FGF-2 molecules | no discernible effect on FGF-2 mitogenicity induced by heparin |  | FGF-2 mitogenic activity (in words) ([2]; absence of added heparin): about the same activity as the syndecan-1 ectodomain; also recorded: minimal mitogenic activity compared with that of heparin; activity relative to heparin, fold less active ([2]; absence of added heparin, on a weight basis): about 150 fold; FGF-2 mitogenicity in the presence of heparin (in words) ([3]; listed as N-sulfoacharan): failed to further stimulate FGF-2 mitogenicity |
| ΔUAp2S(1→[4)GlcNp2S6S(1→4)IdoAp2S(→]m=1-5) [dodecasaccharide, reference compound] |  | 1.8 |  |  |  |  |
| FGF-2: growth factor, control alone in F32 mitogenicity assay |  |  |  |  | ~ 750 cpm |  |
| →4)GlcNpAc(1→4)IdoAp2S(1→ [Acharan sulfate] | 4500 nM | 13.4 | binds very poorly; also recorded: very weak | markedly decreased the mitogenic activity in a concentration dependent manner; also recorded: inhibited FGF-2 mitogenicity in the presence of heparin |  | Kd (FGF-2 [1]; listed as acharan sulfate): > 4000 nM; IC50 of inhibition of FGF-2 mitogenicity ([3]; in the presence of 10 ng/ml heparin): ~ 400 ng/ml; cell viability (number of living cells, MTT) (F32 cells): no reduction in the number of living cells |
| Low molecular weight heparin [reference compound] | 36 nM | 3.6 |  |  |  |  |
| Heparin [reference compound] | 36 nM |  | bind FGF-2 most tightly |  | ~ 750 cpm | mitogenic activity (literature, in words) (FGF-2 [4]): known to enhance the activity of FGF-2 |
